Drawing on PubChem BioAssay (NCI), this text covers TGI for eight molecules.

Some test systems named below: HOP-92 NSCLC; CCRF-CEM leukemia; RPMI-8226 leukemia; OVCAR-3 ovarian; K-562 leukemia; MOLT-4 leukemia; TK-10 renal; NCI-H460 lung; NCI-H226 lung; SN12C renal; RXF 393 renal; SK-MEL-2 melanoma; MALME-3M melanoma; SNB-75 CNS; OVCAR-4 ovarian; UACC-62 melanoma.
Assay in all cases: NCI tumour cell line growth inhibition, 48 h

Each structure is given as a SMILES string.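 These data come from cells grown in 96-well plates and exposed to compound for 48 hours at five concentrations. At the TGI there is no net growth.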

In the case of `CCOC1C(Br)Cn2c(=O)c3cc4ccccc4cc3c(=O)n2C1C` (centres undefined), the TGI with HOP-92 NSCLC is more than 100 µM; in the assay on CCRF-CEM leukemia, more than 100 µM; in the assay on RPMI-8226 leukemia, more than 100 µM; in the assay on OVCAR-3 ovarian it was more than 100 µM; in the assay on K-562 leukemia, more than 100 µM; in the assay with MOLT-4 leukemia it was 94 µM. Also, the TGI with TK-10 renal, with NCI-H460 lung, in the assay with NCI-H226 lung, with SN12C renal, with RXF 393 renal and in the assay on SK-MEL-2 melanoma was more than 100 µM each time. Also, the TGI in the assay with MALME-3M melanoma, with SNB-75 CNS and in the assay with OVCAR-4 ovarian was more than 100 µM in each case.

In the case of `CC1(c2cccc(C3CC4(CCC3=O)OCCCCO4)c2)OCCO1` (centres undefined), the TGI with CCRF-CEM leukemia, in the assay on RPMI-8226 leukemia, in the assay with OVCAR-3 ovarian, in the assay on K-562 leukemia, in the assay on MOLT-4 leukemia and in the assay on TK-10 renal was more than 100 µM in each case. Besides, the TGI in the assay on NCI-H460 lung, in the assay on NCI-H226 lung, with UACC-62 melanoma, in the assay on SN12C renal, in the assay on SK-MEL-2 melanoma and in the assay on MALME-3M melanoma was more than 100 µM in each case. For the same molecule, the TGI in the assay with SNB-75 CNS and in the assay with OVCAR-4 ovarian was more than 100 µM in each case.

Regarding `CCC(CC)NC1=C(NC(C)=O)C(=O)c2ccccc2C1=O`, the TGI in the assay on HOP-92 NSCLC, in the assay with CCRF-CEM leukemia, in the assay on OVCAR-3 ovarian, with K-562 leukemia, with MOLT-4 leukemia and in the assay with TK-10 renal was more than 50 µM throughout. The TGI with NCI-H460 lung, with NCI-H226 lung, with UACC-62 melanoma, in the assay with SN12C renal, with RXF 393 renal and with SK-MEL-2 melanoma was more than 50 µM in each case. Moreover, the TGI in the assay with MALME-3M melanoma, in the assay with SNB-75 CNS and in the assay with OVCAR-4 ovarian was more than 50 µM in each case.

Regarding `COc1ccc2nc3cc(Cl)ccc3c(Sc3ccc([N+](=O)[O-])cc3C)c2c1`, the TGI in the assay with HOP-92 NSCLC, in the assay on CCRF-CEM leukemia, with OVCAR-3 ovarian, with K-562 leukemia, with MOLT-4 leukemia and in the assay with TK-10 renal was more than 100 µM throughout. In addition, the TGI in the assay on NCI-H460 lung, with NCI-H226 lung, in the assay on UACC-62 melanoma, in the assay with SN12C renal, with RXF 393 renal and in the assay with SK-MEL-2 melanoma was more than 100 µM each time. Further, the TGI with MALME-3M melanoma, in the assay with SNB-75 CNS and in the assay with OVCAR-4 ovarian was more than 100 µM throughout.

Take `COc1cc(C=O)c(-c2c(C=O)ccc3c2OCO3)c(OC)c1OC`: the TGI in the assay with CCRF-CEM leukemia, in the assay on RPMI-8226 leukemia, with OVCAR-3 ovarian, in the assay on K-562 leukemia, in the assay on MOLT-4 leukemia and with TK-10 renal was more than 100 µM each time. For the same molecule, the TGI in the assay on NCI-H460 lung, in the assay with NCI-H226 lung, in the assay on UACC-62 melanoma, in the assay with SN12C renal, in the assay with SK-MEL-2 melanoma and with MALME-3M melanoma was more than 100 µM in each case. In addition, the TGI in the assay on SNB-75 CNS and with OVCAR-4 ovarian was more than 100 µM in each case.

Consider `OCC12C=CC(C1)c1ccccc12` (centres undefined), for which the TGI with HOP-92 NSCLC, in the assay on CCRF-CEM leukemia, in the assay on RPMI-8226 leukemia, in the assay with OVCAR-3 ovarian, in the assay with K-562 leukemia and in the assay with MOLT-4 leukemia was more than 100 µM in each case. Also, the TGI in the assay with TK-10 renal, in the assay with NCI-H460 lung, in the assay on NCI-H226 lung, with UACC-62 melanoma, in the assay with SN12C renal and with MALME-3M melanoma was more than 100 µM throughout. Further, the TGI with OVCAR-4 ovarian was more than 100 µM.

With `CCN1C[C@]2(C)CC[C@H](O)C34C1C(C[C@@H]32)[C@@]1(O)CC[C@H]2C[C@@H]4[C@@H]1[C@H]2O`, the TGI in the assay on HOP-92 NSCLC, with CCRF-CEM leukemia, in the assay on RPMI-8226 leukemia, with OVCAR-3 ovarian, in the assay with MOLT-4 leukemia and in the assay on TK-10 renal was more than 100 µM each time. Moreover, the TGI in the assay with NCI-H460 lung, with UACC-62 melanoma, with SN12C renal, in the assay on RXF 393 renal, in the assay on SK-MEL-2 melanoma and in the assay on MALME-3M melanoma was more than 100 µM each time. The TGI with SNB-75 CNS and with OVCAR-4 ovarian was more than 100 µM throughout.

With `O=S(Cc1ccccc1)c1nc2ccccc2nc1-c1cccs1` (centres undefined), the TGI in the assay with HOP-92 NSCLC is 29.8 µM; with CCRF-CEM leukemia, more than 100 µM; in the assay with RPMI-8226 leukemia, 68 µM; with OVCAR-3 ovarian it was 24 µM; in the assay on K-562 leukemia, more than 100 µM; in the assay with MOLT-4 leukemia, more than 100 µM. Also, the TGI came to 28 µM in the assay on TK-10 renal; 45.4 µM with NCI-H460 lung; 16.7 µM in the assay on NCI-H226 lung; 28.1 µM in the assay with SN12C renal; 24.2 µM in the assay with SK-MEL-2 melanoma; 19.4 µM with MALME-3M melanoma. For the same molecule, the TGI in the assay on SNB-75 CNS came out at 36.1 µM; in the assay with OVCAR-4 ovarian it was 24.6 µM.
